This note sets out measurements from US20230374017A1, “COMPOSITIONS AND METHODS FOR ACTIVATING PYRUVATE KINASE” (The Regents of the University of Michigan, priority 2020, published 2023).

The target of one experiment is T1, human recombinant PKM2 (Homo sapiens, UniProt P14618).
T1 construct: purchased Sigma SAE0021
The experiment in a line: Pyruvate kinase activity enzyme assay, recombinant enzyme (LDH-coupled, NADH depletion at 340 nm). In kind it is biochemical. The conditions noted are these: normalized to DMSO-treated PKM2 activity; for EC50: recombinant PKM2 20 nM; for Emax: read-out: Max Activation. On the procedure: Pyruvate Kinase Activity Enzyme Assay. Recombinant Enzyme. A continuous, enzyme-coupled assay, which uses lactate dehydrogenase (LDH) and measures the depletion of NADH via absorbance at 340 nm was utilized to determine the pyruvate kinase activity. For AC50 measurements (concentration of activator necessary to achieve half-maximal activation) with ML-265, assays were performed in 96-well format using 200 μL/well assay volume with final concentrations of 20 nM human recombinant PKM2 (Sigma, SAE0021), differing concentrations of ML-265, 0.5 mM PEP, 1 mM ADP, 0.2 mM NADH, and 8 U of lactate dehydrogenase (LDH) in an assay buffer of 50 mM Tris-HCl (pH 7.4), 100 mM KCl, and 5 mM MgCl2. The decrease in absorbance at 340 nm was monitored using a SPECTROstar Omega plate reader (BMG LABTECH Inc., Cary, NC, USA). Initial velocities were calculated with the MARS software. Data were normalized to DMSO (dimethyl sulfoxide)-treated PKM2 activity.

The target in experiment [1] is T2, pyruvate kinase activity, 661W cell line (Mus musculus, UniProt P52480).
T2 construct: endogenous in cells; host or cells: 661W cell line
T2 sequence (P52480 whole entry): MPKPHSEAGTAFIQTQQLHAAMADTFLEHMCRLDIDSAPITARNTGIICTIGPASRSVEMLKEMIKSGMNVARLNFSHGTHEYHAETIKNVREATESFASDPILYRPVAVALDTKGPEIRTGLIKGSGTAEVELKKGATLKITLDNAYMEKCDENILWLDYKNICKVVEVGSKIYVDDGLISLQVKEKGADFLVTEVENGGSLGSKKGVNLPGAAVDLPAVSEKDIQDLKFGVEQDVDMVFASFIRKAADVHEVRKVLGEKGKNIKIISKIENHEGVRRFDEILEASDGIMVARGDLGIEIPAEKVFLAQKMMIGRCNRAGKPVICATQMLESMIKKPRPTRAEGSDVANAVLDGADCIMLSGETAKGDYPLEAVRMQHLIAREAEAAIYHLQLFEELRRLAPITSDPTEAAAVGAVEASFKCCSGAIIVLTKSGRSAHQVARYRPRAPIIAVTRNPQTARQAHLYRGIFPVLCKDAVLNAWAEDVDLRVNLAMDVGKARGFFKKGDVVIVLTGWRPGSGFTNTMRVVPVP
Briefly: Pyruvate kinase activity in 661W cell lysates after 2 hours treatment. In kind it is cell-based. As to conditions: 661W cells, 2 hours incubation, activity normalized to total protein; for Emax: read-out: Max Activation (cell). Here is the method: Cell culture. For 661W cell line experiments, media was replaced prior to the start of treatment with DMSO or ML-265. Cells were incubated with DMSO or different concentrations of ML-265 for 2 hours. Cells were lysed and homogenized in RIPA Lysis and Extraction Buffer (Catalog number: 89900, Life Technologies Corporation, Grand Island, NY) with protease inhibitors (Complete-Mini, Roche Diagnostics, Indianapolis, IN) and cellular debris was removed by centrifugation at 10,000 rpm for 10 minutes. Ten microliters of the supernatant was used to assess pyruvate kinase activity, and the activity was normalized to total protein content as previously described.

T1 sequence (P14618 whole entry): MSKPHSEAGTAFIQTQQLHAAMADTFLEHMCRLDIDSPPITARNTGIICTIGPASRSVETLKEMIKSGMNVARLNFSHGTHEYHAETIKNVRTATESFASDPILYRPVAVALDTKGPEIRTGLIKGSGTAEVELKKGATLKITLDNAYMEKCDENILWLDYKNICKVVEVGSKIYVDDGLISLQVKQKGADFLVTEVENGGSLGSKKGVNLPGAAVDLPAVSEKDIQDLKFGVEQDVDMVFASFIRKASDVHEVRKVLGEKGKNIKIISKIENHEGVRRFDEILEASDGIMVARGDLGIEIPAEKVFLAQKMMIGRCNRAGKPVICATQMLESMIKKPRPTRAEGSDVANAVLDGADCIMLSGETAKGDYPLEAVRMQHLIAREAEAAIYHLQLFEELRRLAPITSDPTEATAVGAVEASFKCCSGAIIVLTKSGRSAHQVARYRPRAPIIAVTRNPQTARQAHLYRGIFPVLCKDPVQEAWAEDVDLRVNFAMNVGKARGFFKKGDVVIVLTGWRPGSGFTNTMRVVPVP

The term EC50 denotes the midpoint of the concentration-response curve. As to `COc1cccc2c3cnn(Cc4cccc(N)c4)c(=O)c3n(C)c12` [Example 23, 3-(3-aminobenzyl)-6-methoxy-5-methyl-3,5-dihydro-4H-pyridazino[4,5-b]indol-4-one], the EC50 came to 22 nM on human recombinant PKM2 and 33 nM in experiment [1]. The results for the Emax (on human recombinant PKM2 (recombinant PKM2); in experiment [1]) were 196% and 288%, respectively.
With `Cn1c2cc(Oc3cccc(F)n3)ccc2c2cnn(Cc3ccccc3F)c(=O)c21` [Example 74, 3-(2-fluorobenzyl)-7-((6-fluoropyridin-2-yl)oxy)-5-methyl-3,5-dihydro-4H-pyridazino[4,5-b]indol-4-one], the results for the EC50 (at human recombinant PKM2; in experiment [1]) were 62 nM and 81 nM, respectively. The Emax on human recombinant PKM2 (recombinant PKM2) came to 234%; in experiment [1] it was 370%.
Consider `Cn1c2cc(O)c(F)cc2c2cnn(Cc3cccc(N)c3)c(=O)c21` [Example 21, 3-(3-aminobenzyl)-8-fluoro-7-hydroxy-5-methyl-3,5-dihydro-4H-pyridazino[4,5-b]indol-4-one], for which the EC50 on human recombinant PKM2 came out at 25 nM; in experiment [1], 75 nM. Moreover, the Emax on human recombinant PKM2 (recombinant PKM2) was 299%; in experiment [1], 273%.
`Cn1c2cc(O)c(F)cc2c2cnn(Cc3cccc(N)c3)c(=O)c21` [Example 54, 3-(3-aminobenzyl)-8-fluoro-7-hydroxy-5-methyl-3,5-dihydro-4H-pyridazino[4,5-b]indol-4-one]: the EC50 on human recombinant PKM2 is 53 nM. For the same compound, the “Max Activation” value on human recombinant PKM2 (recombinant PKM2) worked out at 299%. In experiment [1], the concentration giving a half-maximal response (EC50) was found to be 75 nM and the “Max Activation (cell)” value was found to be 273%.
As to `Cc1cccc(Cn2ncc3c4ccc(Oc5nccc6[nH]ncc56)cc4n(C)c3c2=O)n1` [Example 64, 7-((1H-pyrazolo[4,3-c]pyridin-4-yl)oxy)-5-methyl-3-((6-methylpyridin-2-yl)methyl)-3,5-dihydro-4H-pyridazino[4,5-b]indol-4-one], the EC50 stood at 69 nM at human recombinant PKM2 and 73 nM in experiment [1]. Also, the values for the Emax (at human recombinant PKM2 (recombinant PKM2); in experiment [1]) were 165% and 272%, respectively.
Turning to `Cc1cccc(Cn2ncc3c4cc(Oc5ccc6[nH]ncc6n5)ccc4n(C)c3c2=O)n1` [Example 60, 8-((1H-pyrazolo[4,3-b]pyridin-5-yl)oxy)-5-methyl-3-((6-methylpyridin-2-yl)methyl)-3,5-dihydro-4H-pyridazino[4,5-b]indol-4-one], the EC50 is 67 nM on human recombinant PKM2 and 54 nM in experiment [1]. Further, the Emax on human recombinant PKM2 (recombinant PKM2) stood at 243%; in experiment [1], 334%.
Regarding `Cc1cccc(Cn2ncc3c4ccc(Oc5cccc(F)n5)cc4n(C)c3c2=O)n1` [Example 66, 7-((6-fluoropyridin-2-yl)oxy)-5-methyl-3-((6-methylpyridin-2-yl)methyl)-3,5-dihydro-4H-pyridazino[4,5-b]indol-4-one], the results for the EC50 (at human recombinant PKM2; in experiment [1]) were 36 nM and 121 nM, respectively. Also, the Emax at human recombinant PKM2 (recombinant PKM2) was found to be 154%; in experiment [1], 323%.
`Cn1ncc2c3ccc(Oc4cccc(Cl)n4)cc3n(C)c2c1=O` [Example 81, 7-((6-chloropyridin-2-yl)oxy)-3,5-dimethyl-3,5-dihydro-4H-pyridazino[4,5-b]indol-4-one]: the EC50 at human recombinant PKM2 amounted to 49 nM; in experiment [1], 259 nM. In addition, the values for the Emax (at human recombinant PKM2 (recombinant PKM2); in experiment [1]) were 336% and 259%, respectively.
As to `COc1cccc(Cn2ncc3c4ccc(Oc5cccc(F)n5)cc4n(C)c3c2=O)c1` [Example 90, 7-((6-fluoropyridin-2-yl)oxy)-3-(3-methoxybenzyl)-5-methyl-3,5-dihydro-4H-pyridazino[4,5-b]indol-4-one], the results for the EC50 (at human recombinant PKM2; in experiment [1]) were 72 nM and 60 nM, respectively. The Emax at human recombinant PKM2 (recombinant PKM2) worked out at 218%; in experiment [1], 202%.
For the compound `Cn1c2cc(Oc3ccc4[nH]ncc4n3)ccc2c2cnn(Cc3ccccc3F)c(=O)c21` [Example 70, 7-((1H-pyrazolo[4,3-b]pyridin-5-yl)oxy)-3-(2-fluorobenzyl)-5-methyl-3,5-dihydro-4H-pyridazino[4,5-b]indol-4-one], the EC50 came out at 82 nM on human recombinant PKM2 and 162 nM in experiment [1]. For the same compound, the Emax on human recombinant PKM2 (recombinant PKM2) was determined as 191%; in experiment [1], 210%.
